The target in data set [1] is T1, dmSERT-F90Y (Drosophila melanogaster, UniProt P51905, F90Y).
T1 construct: expressed in transfected cells; host or cells: T-REx-293
In kind it is cell-based.

Data set [2] addresses T2, dmSERT-D164A (Drosophila melanogaster, UniProt P51905, D164A).
T2 construct: expressed in transfected cells; host or cells: T-REx-293
The class given is cell-based.

Data set [3] has as its target T3, dmSERT-M167I (Drosophila melanogaster, UniProt P51905, M167I).
T3 construct: expressed in transfected cells; host or cells: T-REx-293
The class given is cell-based.

The target of data set [4] is T4, dmSERT-G168A (Drosophila melanogaster, UniProt P51905, G168A).
T4 construct: expressed in transfected cells; host or cells: T-REx-293
In kind it is cell-based.

Data set [5] concerns the target T5, dmSERT-N484E (Drosophila melanogaster, UniProt P51905, N484E).
T5 construct: expressed in transfected cells; host or cells: T-REx-293
In kind it is cell-based.

Data set [6] concerns the target T6, dmSERT-P488T (Drosophila melanogaster, UniProt P51905, P488T).
T6 construct: expressed in transfected cells; host or cells: T-REx-293
The class given is cell-based.

Data set [7] concerns the target T7, dmSERT-I492V (Drosophila melanogaster, UniProt P51905, I492V).
T7 construct: expressed in transfected cells; host or cells: T-REx-293
The class given is cell-based.

The target of data set [8] is ggSERT-WT (Gallus gallus, UniProt Q6PWI2). As to the kind of experiment: Steady-state kinetics of [3H]5-HT transport. In kind it is cell-based, chicken (Gallus gallus). An excerpt:
(§1) Control cells were transfected with empty vector.

The target in data set [9] is T8, dmSERT-WT (Drosophila melanogaster, UniProt P51905).
T8 construct: expressed in transfected cells; host or cells: T-REx-293
T8 sequence (P51905 1-622): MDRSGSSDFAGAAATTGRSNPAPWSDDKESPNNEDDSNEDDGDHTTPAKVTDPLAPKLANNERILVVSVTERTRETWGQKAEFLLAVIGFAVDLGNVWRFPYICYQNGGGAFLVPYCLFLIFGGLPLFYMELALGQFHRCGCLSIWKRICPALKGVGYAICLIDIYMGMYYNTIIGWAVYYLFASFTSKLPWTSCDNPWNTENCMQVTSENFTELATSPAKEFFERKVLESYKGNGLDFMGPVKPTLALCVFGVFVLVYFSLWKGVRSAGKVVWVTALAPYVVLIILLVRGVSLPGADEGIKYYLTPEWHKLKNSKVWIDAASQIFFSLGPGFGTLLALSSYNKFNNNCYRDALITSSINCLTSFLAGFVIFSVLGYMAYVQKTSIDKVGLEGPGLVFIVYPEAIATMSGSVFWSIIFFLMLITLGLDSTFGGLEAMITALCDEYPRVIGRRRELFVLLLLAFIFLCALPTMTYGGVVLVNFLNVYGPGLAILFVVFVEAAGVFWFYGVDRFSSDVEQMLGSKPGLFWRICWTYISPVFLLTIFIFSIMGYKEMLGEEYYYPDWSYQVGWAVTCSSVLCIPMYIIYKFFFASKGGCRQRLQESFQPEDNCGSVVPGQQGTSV
As to the kind of experiment: Paroxetine inhibition of [3H]5-HT transport. In kind it is cell-based.

Data set [10] deals with T1, dmSERT-F90Y. As to the kind of experiment: cell-based.
Data set [11] deals with T2, dmSERT-D164A. As to the kind of experiment: cell-based.
In data set [12] the target is T3, dmSERT-M167I. As to the kind of experiment: cell-based.
The target of data set [13] is T4, dmSERT-G168A. As to the kind of experiment: cell-based.
For data set [14], the target named is T5, dmSERT-N484E. As to the kind of experiment: cell-based.
The target of data set [15] is T6, dmSERT-P488T. As to the kind of experiment: cell-based.
In data set [16] the target is T7, dmSERT-I492V. As to the kind of experiment: cell-based.
In data set [17] the target is LeuBAT-Δ13. To be noted: LeuBAT-Δ13 construct; cited from earlier work.
Data set [18] deals with dmSERT. Further details: method as in PMID 8197200, PMID 9677366. To be noted: read-out: published paroxetine Ki for inhibition of [3H]5-HT uptake; cited from earlier work.
Data set [19] deals with ggSERT. Further details: method as in PMID 15271993. To be noted: read-out: published paroxetine Ki for inhibition of [3H]5-HT uptake; cited from earlier work.
In data set [20] the target is hsSERT-Y95F (Homo sapiens, UniProt P31645, Y95F). To be noted: cited from earlier work.
Data set [21] has as its system NCCc1c[nH]c2ccc(O)cc12. As to the kind of experiment: cells, lysate or membranes. To be noted: [3H]5-HT transport, T-REx-293 cells, average ± SEM, pH 7.4.
Substrate in data set [22]: NCCc1c[nH]c2ccc(O)cc12
As to the kind of experiment: cells, lysate or membranes. The class given is cell-based, chicken (Gallus gallus). To be noted: [3H]5-HT transport, T-REx-293 cells, average ± SEM, pH 7.4.
From the text: as §1

Substitutions are numbered along the chain they refer to. Names may count otherwise. “And” between values parts separate entries of the source, which are not always exact repeats. Equal values may be shown once.

For `NCCc1c[nH]c2ccc(O)cc12` [5-HT, 5-hydroxytryptamine], the “% wt Vmax” value worked out at 109.7 ± 4.2% in data set [1]; 136.0 ± 10.6% in data set [2]; 79.9 ± 22.1% in data set [3]; 330.3 ± 61.7% in data set [4]; 8.0 ± 1.8% in [5]; 15.1 ± 0.3% in data set [6]. Further, the “% wt Vmax” value in data set [7] turned out to be 89.8 ± 8.8%; in data set [8] it was 100 ± 9.6%.
As usually defined, the IC50 is the point on the concentration scale where inhibition reaches its midpoint. A lower IC50 goes with greater potency in that assay. As a reminder, the Ki is a dissociation constant, usually derived from enzyme kinetics or from competition with a known ligand. A word on the Kd: it is a measure of binding affinity in units of concentration. On to `Fc1ccc([C@@H]2CCNC[C@H]2COc2ccc3c(c2)OCO3)cc1` [Paroxetine, (3S,4R)-3-[(2H-1,3-benzodioxol-5-yloxy)methyl]-4-(4-fluorophenyl)piperidine], for which the 50% inhibitory concentration (IC50) amounted to 6.1 ± 1.35 nM in data set [9]; 5.31 ± 0.94 nM in [10]; 0.86 ± 0.07 nM in data set [11]; 2.71 ± 0.29 nM in data set [12]; 2.8 ± 0.66 nM in [13]; 1.9 ± 0.22 nM in data set [14]. Also, the IC50 in [15] came out at 20.5 ± 1.86 nM; in [16], 16.3 ± 1.2 nM. Further, the Ki in [9] (Ki, dmSERT-WT, from IC50 and Km via Cheng-Prusoff) is 6.04 ± 1.33 nM; in data set [10], 5.26 ± 0.93 nM; in data set [11] (Ki, dmSERT-D164A, from IC50 and Km via Cheng-Prusoff), 0.9 nM and 0.86 nM; in data set [12], 2.68 ± 0.29 nM; in [13], 2.78 ± 0.66 nM; in data set [14], 1.83 ± 0.21 nM. Also, the Ki in [15] is 20.3 ± 1.85 nM; in data set [16] it was 16.2 ± 1.2 nM; in [18] it was 3.4 nM; in data set [19] it was 397 nM. Moreover, the Kd in data set [17] was approximately 430 nM.
Take `OC1(c2ccc(Cl)cc2)c2ccccc2C2=NCCN21` (stereo not drawn) [mazindol]: in data set [20], the change in potency entry is on record as “increase”.
The term Km denotes the concentration of substrate that gives half-maximal velocity. For “dmSERT-D164A (Drosophila melanogaster; D164A)”, in [21] (other: dmSERT-D164A), the Michaelis constant (Km) was 10,258 ± 756 nM and the Vmax was 87.9 ± 6.8 pmol/min/mg total cell protein.
Regarding “dmSERT-F90Y (Drosophila melanogaster; F90Y)”, in data set [21] (other: dmSERT-F90Y), the Km is recorded as 1,784 ± 121 nM and the Vmax was 70.9 ± 2.7 pmol/min/mg total cell protein.
Consider “dmSERT-G168A (Drosophila melanogaster; G168A)”, for which, in [21] (other: dmSERT-G168A), the Michaelis-Menten constant (Km) is on record as 3,342 ± 272 nM and the Vmax is 213.4 ± 39.9 pmol/min/mg total cell protein.
As to “dmSERT-I492V (Drosophila melanogaster; I492V)”, in data set [21] (other: dmSERT-I492V), the Km is listed as 3,281 ± 357 nM and the Vmax is 58.0 ± 5.7 pmol/min/mg total cell protein.
As to “dmSERT-M167I (Drosophila melanogaster; M167I)”, in data set [21] (other: dmSERT-M167I), the Michaelis constant (Km) is 1,487 ± 132 nM and the Vmax is given as 51.6 ± 14.3 pmol/min/mg total cell protein.
In the case of “dmSERT-N484E (Drosophila melanogaster; N484E)”, in data set [21] (other: dmSERT-N484E), the Km turned out to be 522 ± 67 nM and the Vmax is 5.2 ± 1.2 pmol/min/mg total cell protein.
With “dmSERT-P488T (Drosophila melanogaster; P488T)”, in [21] (other: dmSERT-P488T), the Km is 2,737 ± 277 nM and the Vmax was 9.8 ± 0.2 pmol/min/mg total cell protein.

B1: ggSERT-WT (Gallus gallus) (protein)
chain: MENKATSNETQPLTSKKGISDCNEGEDCKENGLLIRNPKSALRLVDDGNKVHPGQGDKEEAAQISNGYSGVQSSGPCSGMGEAEDAQCTAPAATTTTTTTTSTTCGAEGQQQLMELGDRETWSKKIDFLLSVIGYAVDLGNVWRFPYICYQNGGGAFLIPYTIMAIFGGIPLFYMELALGQYHRNGCISIWRKICPIFKGIGFAICIIDLYVASYYNTIMAWVFYYLVSSFTTELPWTSCNNAWNTGNCTTYFSKDNISWALHSISPAEEFYTRQVLQVHRSNGLDDLGGISWQLTLCLLLIFIIVYFSIWKGVKTSGKVVWVTATFPYVILFILLVRGATLPGAWRGVLYYLKPEWQKLLATEVWVDAAAQIFFSLGPGFGVLLAYASYNKFHNNCYQDALVTSTVNCLTSFVSGFVIFTVLGYMAEMRNEDVSEVAKDMGPSLLFITYAEAIANMPASTFFAIIFFLMLLTLGLDSTFAGLEGVITGVLDEFPHVWSKRREFFVLGLIIICFLGSLATLTFGGAYVVKLFEEYATGPAVLTVVFLEAVAVAWFYGITQFCNDVKEMLGFAPGWYWRVCWVAISPIFLLFVTCSFLSNPPELRLFDYNYPYWTTVVGYCIGTSSIICIPIYMAYRLIITPGTLKERILKSITPETATEIPFGDIRMNAV
For the molecule B1, the Vmax in data set [22] (other: ggSERT-WT) is recorded as 18.4 ± 1.8 pmol/min/mg total cell protein.

B2: ggSERT-D209A (Gallus gallus; D209A) (protein)
chain: B1 chain with D209A
Consider B2, for which, in data set [22] (other: ggSERT-D209A), the Km was 0.971 ± 0.071 µM and the Vmax is given as 73.8 ± 21.5 pmol/min/mg total cell protein.
